Test results reported in US20220023273A1, “METHODS FOR TREATING SYMPTOMS AND DISORDERS ASSOCIATED WITH LYSOSOMAL STORAGE DISEASES” (GENZYME CORPORATION, priority 2019, published 2022).
Values joined by “and” are separate entries in the source; they are usually repeats but may differ in a detail not shown here. Identical values can stand only once.

Legend:
Type in all cases: in vivo, human
[1] = GD3 clinical study: safety and tolerability; conditions: GD3, 15 mg/day oral + imiglucerase
Description: (§1) During the study patients were evaluated for safety and tolerability, CSF and plasma biomarkers (glucosylceramide, GL-1; glucosylsphingosine, lyso-GL1), pharmacokinetics, markers for systemic disease (spleen and liver volume measured by magnetic resonance imaging (MRI), platelet count, hemoglobin levels), indicia of interstitial lung disease (high resolution pulmonary computed tomography (CT)), and horizontal saccadic eye movement.

[2] = tested on: adult patients with Gaucher disease Type 3; assay: GD3 clinical study: resting-state fMRI connectivity; conditions: Patient 5 likely non-compliant, GD3, 15 mg/day oral + imiglucerase
Description: Neurological function—was further evaluated using functional magnetic resonance imaging (fMRI). Patient 2 was excluded because no fMRI data was collected at the Week 52 session. Resting-state fMRI screening sessions were performed at baseline screening, Week 26, and Week 52 visits. Connectivity estimates from four subjects (Patients 1, 3, 4 and 5) were entered into second-level analyses as a “compliant” group. Patient 5 was isolated due to likely non-compliance with study medication, as described above. Analyses were performed as described elsewhere (Smith et al. [2009]).
Spatial analysis of the connectivity between different anatomic regions of the brain is performed to define a correlation coefficient for regressed voxelwise mean intensity.

[3] = tested on: adult patients with Gaucher disease Type 3; assay: GD3 clinical study: Scale for Assessment and Rating of Ataxia (SARA)
Description: The degree of ataxia at baseline and throughout the study was evaluated by the Scale for Assessment and Rating of Ataxia (SARA; Schmitz-Hubsch et al. [2006]), which assesses eight distinct attributes of cerebellar ataxia on a scale of 0-40. The eight attributes are gait, stance, sitting, speech disturbance, finger chase, nose-finger test, fast alternate hand movement, and heel-shin slide. SARA ataxia scoring results for all six patients is presented in the chart below: […]

[4] = tested on: glucosylceramide (GL-1), glucosylsphingosine (lyso-GL1); assay: GD3 clinical study: CSF and plasma biomarkers GL-1 and lyso-GL1; conditions: GD3, 15 mg/day oral + imiglucerase
Description: as §1
At baseline, the mean (±SD) GL-1 concentration in CSF was 7.1±2.8 ng/mL (range 4.4-11.1 ng/mL), while the mean (±SD) lyso-GL-1 concentration in CSF was 39.3±22.9 pg/mL (range 20.1-67.6 pg/mL). For comparison, the healthy GL-1 concentration in CSF is 4.5-5.9 ng/mL, and the healthy level of lyso-GL-1 in CSF is less than 5.0 pg/mL.

[5] = tested on: adult patients with Gaucher disease Type 3; assay: GD3 clinical study: horizontal and vertical saccadic eye movements; conditions: GD3, 15 mg/day oral + imiglucerase
Description: as §1
Quantification of horizontal and vertical saccadic eye movements (HSEM and VSEM, respectively) was performed in all 5 patients. In the five patients, mean peak velocity (PV) of horizontal rightward 150 saccades was 50.8°/s (+/−8.1°/s) at baseline and […] (+/−12.6°/s) at Week 26: and the mean PV of horizontal leftward 150 saccades was 44.7°/s (+/−17.9°/s) at baseline and 32.3°/s (+/−15.9°/s) at Week 26. […]
At 52 weeks, quantification of horizontal and vertical saccadic eye movements was performed in all six patients in a similar manner as described in section (A). However, it was determined that the methodology used to account for noise (e.g., caused by blinking or head movements) may have introduced bias into the results. The method of accounting for noise was therefore modified, and a set of control criteria were developed to assess validity of the datasets obtained by the eye movement reader.

[6] = tested on: adult patients with Gaucher disease Type 3; assay: GD3 clinical study: trail making test (TMT); conditions: GD3, 15 mg/day oral + imiglucerase
Excerpt: The trail making test (TMT) was used to evaluate cognitive function in the patients. The TMT is one of the most widely used neuropsychological tests and is included in most test batteries. The TMT is a diagnostic tool to assess general intelligence and cognitive dysfunctions (Tombaugh et al. [2004]; Cavaco et al. [2013]). In part A of the TMT, subjects are asked to connect a cluster of numbers in ascending order. This task is a combination of visual search and general visual and motor processing speed. Part B presents a sequence which alternates between numbers and letters. Subjects must actively switch between both categories when connecting them in ascending, but alternating order.
TMT-A evaluates mainly perceptual and psychomotor speed. TMT-B assesses more specifically mental flexibility and shifting abilities. TMT B minus TMT A score is used to remove the variance attributable to the graphomotor and visual scanning components of TMT A. This derived score reflects the unique task requirements of TMT B.

CC(C)(NC(=O)O[C@@H]1CN2CCC1CC2)c1csc(-c2ccc(F)cc2)n1 [Compound 2, (S)-quinuclidin-3-yl (2-(2-(4-fluorophenyl)thiazol-4-yl)propan-2-yl)carbamate]
treatment-emergent adverse events ([1]; 26 weeks, all 5 patients): no serious or lasting treatment-emergent adverse events | total treatment-emergent adverse events reported ([1]; 52 weeks, six patients): 30 | severity of treatment-emergent adverse events ([1]; 52 weeks, six patients, none considered related to treatment): mild or moderate in severity | connectivity between the default mode (resting) network and the executive function network [2]: increased in Patients 1, 3, 4 and 6, but decreased in Patient 5 | patients showing improvements in ataxia ([3]; 52 weeks, GD3, 15 mg/day oral + imiglucerase): 5 of 6 | SARA stance score, Patient 4 ([3]; Week 52 (baseline 1), knee pain and toe injury at exam): 5 | patients exhibiting an improvement in ataxia, excluding Patient 5 ([3]; Week 52, GD3, 15 mg/day oral + imiglucerase): 4 out of 5 | plasma and CSF biomarkers for GD-3 ([4]; 26 weeks): significant improvements | plasma and CSF biomarkers for GD-3 ([4]; 52 weeks): sustained significant improvements | VSEM measurements ([5]; between baseline and week 26): stable | changes in HSEM ([5]; over the 26-week treatment period): no clinically meaningful changes | TMT-A-TMT-B ([6]; Week 52, individual patients 1-6): 20 s | patients with a TMT-A reduction, excluding Patient 5 ([6]; Week 52): four of five | patients with a TMT-B reduction, excluding Patient 5 ([6]; Week 52): five of five | patients with a reduction in the (TMT B-TMT A) time ([6]; Week 52): 5 of 6 | patients with an improvement in Trail B minus Trial A, excluding Patient 5 ([6]; Week 52): four of five | patients with reduction in time taken to complete Trail A ([6]; Week 52): Four of six | patients with reduction in time taken to complete Trail B ([6]; Week 52): six of six | TMT-A-TMT-B, Change (%) from Baseline to Week 52 ([6]; individual patients 1-6): −72% and −43%
